Read-outs that look alike come from different tables or passages of the source.

One series addresses human BACE1 (Homo sapiens, UniProt P56817). The series can be described thus: Fluorescent kinetic assay, evaluation of BACE1 binding affinity of test compounds. The class given is biochemical. As to conditions: 10 nM human BACE1, 25 μM substrate WABC-6, pH 4.5, room temperature. A digest of the protocol: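 Kinetic fluorescence assay: enzyme added last to inhibitor and substrate mix, reading started immediately; substrate at 100 μM working dilution (25 μL in 100 μL total). Buffer 66.7 mM Na-acetate pH 4.5 with 0.0667% CHAPS for inhibitor and enzyme dilutions; enzyme stock quantified at 280 nm.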

Chain of human BACE1 (P56817 46-501): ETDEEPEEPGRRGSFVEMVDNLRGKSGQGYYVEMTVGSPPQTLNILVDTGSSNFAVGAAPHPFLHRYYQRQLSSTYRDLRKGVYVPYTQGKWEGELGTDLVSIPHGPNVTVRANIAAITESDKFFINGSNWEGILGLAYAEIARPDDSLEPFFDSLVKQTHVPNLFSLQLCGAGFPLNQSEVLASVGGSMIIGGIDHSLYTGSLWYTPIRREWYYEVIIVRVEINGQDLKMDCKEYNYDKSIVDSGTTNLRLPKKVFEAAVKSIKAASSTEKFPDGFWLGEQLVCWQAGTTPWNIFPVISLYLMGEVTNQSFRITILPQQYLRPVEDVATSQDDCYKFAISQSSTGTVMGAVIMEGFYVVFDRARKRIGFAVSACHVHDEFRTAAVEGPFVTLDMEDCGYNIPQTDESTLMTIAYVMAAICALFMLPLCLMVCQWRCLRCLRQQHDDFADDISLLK

As to `CN1C(=O)C(c2cccc(Br)c2)(c2ccc(OC(F)F)c(C3CC3)c2)N=C1N` (centres unmarked) [Example 164, 2-Amino-5-(3-bromo-phenyl)-5-(3-cyclopropyl-4-difluoromethoxy-phenyl)-3-methyl-3,5-dihydro-imidazol-4-one], the melting point fell in the range of 85 to 87 °C. Besides, the IC50 at human BACE1 (read-out: BACE1 IC50) was less than 0.1 µM.

For `CN1C(=O)[C@@](c2cccc(C#CC3CC3)c2)(c2ccc(OC(F)F)c(C3CC3)c2)N=C1N` (single isomer, unassigned) [Example 178], at human BACE1 (read-out: BACE1 IC50), the IC50 lay in the range of 0.11 to 1 µM.

For `C#Cc1cccc(C2(c3ccc(OC(F)F)c(C4CC4)c3)N=C(N)N(C)C2=O)c1` (centres unmarked) [Example 167, 2-amino-4-(3-cyclopropyl-4-(difluoromethoxy)phenyl)-4-(3-ethynylphenyl)-1-methyl-1H-imidazol-5(4H)-one], the IC50 at human BACE1 (read-out: BACE1 IC50) is less than 0.1 µM.

For the molecule `CCc1cc(C2(c3ccc(F)c(OCCC(F)F)c3)N=C(N)N(C)C2=O)ccc1OC(F)F` (centres unmarked) [Example 134, 2-Amino-5-[4-(difluoromethoxy)-3-ethylphenyl]-5-[3-(3,3-difluoropropoxy)-4-fluorophenyl]-3-methyl-3,5-dihydro-4H-imidazol-4-one], on human BACE1 (read-out: BACE1 IC50), the IC50 was less than 0.1 µM.

Consider `CCc1cc([C@]2(c3ccc(F)c(C#CCOC)c3)N=C(N)N(C)C2=O)ccc1OC(F)F` [Example 156, (5R)-2-Amino-5-[4-(difluoromethoxy)-3-ethylphenyl]-5-[4-fluoro-3-(3-methoxyprop-1-yn-1-yl)phenyl]-3-methyl-3,5-dihydro-4H-imidazol-4-one], for which, at human BACE1 (read-out: BACE1 IC50), the IC50 was less than 0.1 µM.

As for `Cc1cc(C2(c3ccc(F)c(Br)c3)N=C(N)N(C)C2=O)ccc1OC(F)F` (centres unmarked) [Example 32], the IC50 on human BACE1 (BACE1 IC50 μM) is less than 0.1 µM.

On human BACE1 (BACE1 IC50 μM), `C=Cc1cc([C@@]2(c3ccccc3)N=C(N)N(C)C2=O)ccc1OC(F)F` [Example 33, (5R)-2-Amino-5-[4-(difluoromethoxy)-3-vinylphenyl]-3-methyl-5-phenyl-3,5-dihydro-4H-imidazol-4-one] had an IC50 of less than 0.1 µM.

As for `Cc1cc([C@]2(c3cccc(C#CCF)c3)N=C(N)N(C)C2=O)ccc1OC(F)F` [Example 201, (5S)-2-amino-5-[4-(difluoromethoxy)-3-methylphenyl]-5-[3-(3-fluoroprop-1-yn-1-yl)phenyl]-3-methyl-3,5-dihydro-4H-imidazol-4-one], the IC50 on human BACE1 (read-out: BACE1 IC50) is less than 0.1 µM.

As for `CC(C)CC#Cc1cc(C2(c3ccc(OC(F)F)c(CCF)c3)N=C(N)N(C)C2=O)ccc1F` (centres unmarked) [Example 90, 2-amino-5-[4-(difluoromethoxy)-3-(2-fluoroethyl)phenyl]-5-[4-fluoro-3-(4-methylpent-1-yn-1-yl)phenyl]-3-methyl-3,5-dihydro-4H-imidazol-4-one], at human BACE1 (read-out: BACE1 IC50), the IC50 is less than 0.1 µM.

In the case of `COCCCC#Cc1cccc(C2(c3ccc(OC(F)F)c(C4CC4)c3)N=C(N)N(C)C2=O)c1` (centres unmarked) [Example 186, 2-amino-4-(3-cyclopropyl-4-(difluoromethoxy)phenyl)-4-(3-(5-methoxypent-1-ynyl)phenyl)-1-methyl-1H-imidazol-5(4H)-one], the IC50 at human BACE1 (read-out: BACE1 IC50) was less than 0.1 µM.

As usually defined, the melting point is the temperature, or range, at which the solid turns liquid. The IC50 is the concentration that gives 50% inhibition.
